pIC50: −log10 of the molar value. Square brackets hold non-standard residues; d marks the D form. Peptide text beside a SMILES is read from it. Where only a bound is given, the exact number is not on record here.

For one assay, the system named is SARS-CoV-2. The assay can be described thus: microbe, parasite or virus in culture. The settings on record: Severe acute respiratory syndrome coronavirus 2, Vero C1008, 48 h.
Consider `CCCn1c(=O)c2nc(C34CC5CC(CC(C5)C3)C4)[nH]c2n(CCC)c1=O`, for which the pIC50 was < 4.70.
Turning to `CC(C)(C(=O)NCC(F)(F)C(F)(F)F)C(=O)N[C@@H]1C(=O)Nc2ccccc2-c2ccccc21` [RG-4733], the pIC50 was < 4.70.
Consider `COc1cc2c(cc1OC)C(=O)OC2` [METAMECONINE], for which the negative logarithm of the IC50 (pIC50) was < 4.70.
Consider `CCC(=O)OC1(c2ccccc2)CCN(C)CC1C` (stereo unspecified) [ALPHAPRODINE], for which the pIC50 was < 4.70.
Still for that read-out and setting: to `OC(c1ccccc1)(c1ccccc1)C1CCNCC1` [AZACYCLONOL] belongs < 4.70; to `CC(C)(C)c1cnc(CSc2cnc(NC(=O)C3CCNCC3)s2)o1` [BMS-387032], < 4.70.
As for `CCCCCC(=O)O[C@]1(C(C)=O)CCC2C3CCC4=CC(=O)CCC4(C)C3CCC21C` (stereo partly specified), the negative logarithm of the IC50 (pIC50) is < 4.70.
For the molecule `CN1C(=O)N(c2cc(Cl)cc(Cl)c2)C(=O)[C@@]1(C)Cc1ccc(Br)cc1`, the negative logarithm of the IC50 (pIC50) is < 4.70.
As for `CC(C(O)(Cn1cncn1)c1ccc(F)cc1F)S(C)(=O)=O` (stereo unspecified), the pIC50 is < 4.70.
Turning to `CCC[C@@]1(CCc2ccccc2)CC(O)=C([C@H](CC)c2cccc(NS(=O)(=O)c3ccc(C(F)(F)F)cn3)c2)C(=O)O1`, the pIC50 was < 4.70.
With `CC(=O)N(O)C/C=C/c1cccc(Oc2ccccc2)c1`, the pIC50 is < 4.70.
In the case of `O=c1c(O)c(-c2ccc(O)c(O)c2)oc2cc(O)cc(O)c12` [QUERCETIN], the pIC50 was < 4.70.
With `CN1C(=O)CN=C(c2ccccc2F)c2cc(Cl)ccc21` [FLUDIAZEPAM], the negative-log IC50 (pIC50) was < 4.70.
Same read-out and setting: the value for `CC(C)C[C@H](NC(=O)[C@H](CCc1ccccc1)NC(=O)CN1CCOCC1)C(=O)N[C@@H](Cc1ccccc1)C(=O)N[C@@H](CC(C)C)C(=O)[C@@]1(C)CO1` [CARFILZOMIB] was < 4.70; that for `CC(=O)Oc1cc(C(F)(F)F)ccc1C(=O)O` [TRIFLUSAL] was < 4.70.
Take `Oc1c(I)cc(I)c2cccnc12` [IODOQUINOL]: the pIC50 is < 4.70.
As for `O=C(O)c1cn(-c2ccc(F)cc2)c2cc(N3CCNCC3)c(F)cc2c1=O` [SARAFLOXACIN], the pIC50 is < 4.70.
With `Oc1cc(O)c2c(c1)OC(c1ccc(O)c(O)c1)C(O)C2` (stereo unspecified) [CATECHIN], the negative-log IC50 (pIC50) was < 4.70.
Take `Cc1cc(NS(=O)(=O)c2ccc(N)cc2)no1` [SULFAMETHOXAZOLE]: the pIC50 is < 4.70.
Turning to `CC(=O)NO` [ACETOHYDROXAMIC ACID], the negative-log IC50 (pIC50) is < 4.70.
In the case of `Nc1nc(=O)c2c([nH]1)NCC(CNc1ccc(C(=O)N[C@@H](CCC(=O)O)C(=O)O)cc1)N2C=O` (stereo partly specified) [LEUCOVORIN], the negative-log IC50 (pIC50) is < 4.70.
As for `NC(=O)C[S+]([O-])C(c1ccccc1)c1ccccc1` (stereo unspecified) [MODAFINIL], the negative-log IC50 (pIC50) was < 4.70.
Same read-out and setting: the value for `CCOc1ccc2nccc([C@@H](O)[C@@H]3C[C@@H]4CCN3C[C@@H]4CC)c2c1` [ETHYLHYDROCUPREINE] was < 4.70; that for `CC(=O)Oc1ccccc1C(=O)O` [ASPIRIN] was < 4.70.
In the case of `CC(C)(C)NCC(O)c1cc(Cl)c(N)c(Cl)c1` (stereo unspecified) [CLENBUTEROL], the pIC50 is < 4.70.
For the molecule `O=C(NC(CO)C(O)c1ccc([N+](=O)[O-])cc1)C(Cl)Cl` (stereo unspecified), the pIC50 is < 4.70.
On to `CN1CCCCC1CCN1c2ccccc2Sc2ccc([S+](C)[O-])cc21` (stereo unspecified) [MESORIDAZINE], for which the pIC50 was < 4.70.
For `COc1cc(C)[nH]c(=O)c1CNC(=O)c1c(C)n([C@H](C)C2CCN(CC(F)(F)F)CC2)c2ccccc12` [CPI-1205], the pIC50 is < 4.70.
In the case of `C[C@H](N)C(=O)N[C@H](CCC(N)=O)C(=O)O` (H-Ala-[dQ]-OH), the negative-log IC50 (pIC50) is < 4.70.
As for `O=C(NCCN1CCOCC1)c1ccc(Cl)cc1` [MOCLOBEMIDE], the pIC50 was < 4.70.
The same measure, in the same setting: to `COc1ccc(-c2ccc(=O)n(Cc3ccc(Cl)cc3F)c2)cc1` belongs < 4.70.
As for `COc1ccc(-c2nc3cc(C4=NNC(=O)C[C@H]4C)ccc3[nH]2)cc1`, the negative logarithm of the IC50 (pIC50) is < 4.70.
Take `C[N+]1(C)CCCC(OC(=O)C(O)(c2ccccc2)c2ccccc2)C1` (stereo unspecified) [MEPENZOLATE]: the pIC50 is < 4.70.

The assay is the same for the next values; noted with them: Severe acute respiratory syndrome coronavirus 2, Vero C1008, 48 h, read-out: pIC50 (converted).
Take `CCCn1c(=O)c2nc(C34CC5CC(CC(C5)C3)C4)[nH]c2n(CCC)c1=O`: the IC50 is > 20 µM.
Turning to `CC(C)(C(=O)NCC(F)(F)C(F)(F)F)C(=O)N[C@@H]1C(=O)Nc2ccccc2-c2ccccc21` [RG-4733], the IC50 was > 20 µM.
As to `COc1cc2c(cc1OC)C(=O)OC2` [METAMECONINE], the IC50 was > 20 µM.
As to `CCC(=O)OC1(c2ccccc2)CCN(C)CC1C` (stereo unspecified) [ALPHAPRODINE], the IC50 was > 20 µM.
As to `OC(c1ccccc1)(c1ccccc1)C1CCNCC1` [AZACYCLONOL], the IC50 was > 20 µM.
On the same count and under the same terms, to `CC(C)(C)c1cnc(CSc2cnc(NC(=O)C3CCNCC3)s2)o1` [BMS-387032] belongs > 20 µM; to `CCCCCC(=O)O[C@]1(C(C)=O)CCC2C3CCC4=CC(=O)CCC4(C)C3CCC21C` (stereo partly specified), > 20 µM; to `CN1C(=O)N(c2cc(Cl)cc(Cl)c2)C(=O)[C@@]1(C)Cc1ccc(Br)cc1`, > 20 µM.
On to `CC(C(O)(Cn1cncn1)c1ccc(F)cc1F)S(C)(=O)=O` (stereo unspecified), for which the IC50 is > 20 µM.
Same read-out and setting: the value for `CCC[C@@]1(CCc2ccccc2)CC(O)=C([C@H](CC)c2cccc(NS(=O)(=O)c3ccc(C(F)(F)F)cn3)c2)C(=O)O1` was > 20 µM; that for `CC(=O)N(O)C/C=C/c1cccc(Oc2ccccc2)c1` was > 20 µM.
With `O=c1c(O)c(-c2ccc(O)c(O)c2)oc2cc(O)cc(O)c12` [QUERCETIN], the IC50 was > 20 µM.
As for `CN1C(=O)CN=C(c2ccccc2F)c2cc(Cl)ccc21` [FLUDIAZEPAM], the IC50 was > 20 µM.
Still for that read-out and setting: the value for `CC(C)C[C@H](NC(=O)[C@H](CCc1ccccc1)NC(=O)CN1CCOCC1)C(=O)N[C@@H](Cc1ccccc1)C(=O)N[C@@H](CC(C)C)C(=O)[C@@]1(C)CO1` [CARFILZOMIB] was > 20 µM.
Still for that read-out and setting: the value for `CC(=O)Oc1cc(C(F)(F)F)ccc1C(=O)O` [TRIFLUSAL] was > 20 µM.
For the molecule `Oc1c(I)cc(I)c2cccnc12` [IODOQUINOL], the IC50 is > 20 µM.
Turning to `O=C(O)c1cn(-c2ccc(F)cc2)c2cc(N3CCNCC3)c(F)cc2c1=O` [SARAFLOXACIN], the IC50 is > 20 µM.
Regarding `Oc1cc(O)c2c(c1)OC(c1ccc(O)c(O)c1)C(O)C2` (stereo unspecified) [CATECHIN], the IC50 was > 20 µM.
As to `Cc1cc(NS(=O)(=O)c2ccc(N)cc2)no1` [SULFAMETHOXAZOLE], the IC50 is > 20 µM.
Regarding `CC(=O)NO` [ACETOHYDROXAMIC ACID], the IC50 is > 20 µM.
Same read-out and setting: the value for `Nc1nc(=O)c2c([nH]1)NCC(CNc1ccc(C(=O)N[C@@H](CCC(=O)O)C(=O)O)cc1)N2C=O` (stereo partly specified) [LEUCOVORIN] was > 20 µM; that for `NC(=O)C[S+]([O-])C(c1ccccc1)c1ccccc1` (stereo unspecified) [MODAFINIL] was > 20 µM.
As for `CCOc1ccc2nccc([C@@H](O)[C@@H]3C[C@@H]4CCN3C[C@@H]4CC)c2c1` [ETHYLHYDROCUPREINE], the IC50 is > 20 µM.
On the same count and under the same terms, the value for `CC(=O)Oc1ccccc1C(=O)O` [ASPIRIN] was > 20 µM; that for `CC(C)(C)NCC(O)c1cc(Cl)c(N)c(Cl)c1` (stereo unspecified) [CLENBUTEROL] was > 20 µM.
Same read-out and setting: the value for `O=C(NC(CO)C(O)c1ccc([N+](=O)[O-])cc1)C(Cl)Cl` (stereo unspecified) was > 20 µM; that for `CN1CCCCC1CCN1c2ccccc2Sc2ccc([S+](C)[O-])cc21` (stereo unspecified) [MESORIDAZINE] was > 20 µM; that for `COc1cc(C)[nH]c(=O)c1CNC(=O)c1c(C)n([C@H](C)C2CCN(CC(F)(F)F)CC2)c2ccccc12` [CPI-1205] was > 20 µM.
Take `C[C@H](N)C(=O)N[C@H](CCC(N)=O)C(=O)O` (H-Ala-[dQ]-OH): the IC50 is > 20 µM.
On to `O=C(NCCN1CCOCC1)c1ccc(Cl)cc1` [MOCLOBEMIDE], for which the IC50 was > 20 µM.
As to `COc1ccc(-c2ccc(=O)n(Cc3ccc(Cl)cc3F)c2)cc1`, the IC50 is > 20 µM.
As for `COc1ccc(-c2nc3cc(C4=NNC(=O)C[C@H]4C)ccc3[nH]2)cc1`, the IC50 is > 20 µM.
For `C[N+]1(C)CCCC(OC(=O)C(O)(c2ccccc2)c2ccccc2)C1` (stereo unspecified) [MEPENZOLATE], the IC50 is > 20 µM.

For the origin of these results see ChEMBL document CHEMBL4651402, “Screening of ~5500 FDA-approved drugs and clinical candidates for anti-SARS-CoV-2 activity” (2021).
